# Measured values from patent publication US7521418B2, “Use of a polyene macrolide antifungal agent in combination with a glycopeptide antibacterial agent” (Theravance, Inc., priority 2003, dated 2009).
# Tests used:
# Test in all cases: Checkerboard MIC assay, FICI
# [1] = test system: C. parapsilosis ATCC 22019; assay type: cell-based, Candida parapsilosis; details: combination with Compound 1; C. parapsilosis ATCC 22019
# Description: (§1) The following assay was used to determine the minimum inhibitory concentration (MIC) and fractional inhibitory concentration index (FICI) for combinations of an antifungal agent and a glycopeptide antibacterial agent. This assay and methods for calculating FICI are well known in the art. See, for example, Eliopoulos, E. G. and R. Moellering, Jr. “Antimicrobial Combinations” in Antibiotics in Laboratory Medicine, edited by V. Lorian, 4th Ed., Williams & Wilkins, Baltimore, MD, pp. 330-396 (1996); […] et al., Antimicrobial Agents and Chemotherapy 47(4):1416-1418 (2003); or […] et al., Antimicrobial Agents and Chemotherapy 46(10):3323-3326 (2002). Procedures, protocols, supplies and equipment used in this assay follow the recommendations approved and published by the National Committee for Clinical Laboratory Standards (NCCLS), Wayne, Pa. as described in NCCLS 2003, “Reference Method for Broth Dilution Antimicrobial Susceptibility Tests for Bacteria that Grow Aerobically; Approved Standard” (NCCLS document M7-A6); NCCLS 2002, “Reference Method for Broth Dilution Antifungal Susceptibility Tests of Filamentous Fungi that Grow Aerobically; Approved Standard” (NCCLS document M38-A); and NCCLS 2002 “Reference Method for Broth Dilution Antifungal Susceptibility Tests of Yeast; Approved Standards-2nd Edition” (NCCLS document M27-A2). Using a checkerboard method, a 2-fold dilution 100× final concentration master plate was prepared using a 96-well U-shape microtiter plate and an appropriate solvent. In the “checkerboard” method, a microtiter plate is divided into “columns” in which each well in the column contains the same amount of an antifungal agent (Compound A) being diluted along the x-axis, and “rows” in which each well in the row contains the same amount of a glycopeptide antibacterial agent (Compound B) being diluted on the y-axis. Also included is a row (or column) for Compound A or B alone. The dilutions used in the checkerboard are exponential (by powers of two). The result is that each well in the microtiter plate contains a unique concentration of the two compounds being tested. […] After mixing, 100 μL of 2× drug combinations were distributed into 96-well microtiter plates. […] Compound A was not added to Column 12, so Column 12 contained only Compound B. Compound B was diluted from row A starting at 6,400 μg/mL down to row G (100 μg/mL). Wells in Row A contained a final concentration of 64 μg/mL of Compound B; Row B contained a final concentration of 32 μg/mL of Compound B; Row C contained a final concentration of 16 μg/mL of Compound B; etc. Compound B was not added to Row H, so Row H only contained Compound A. […] The MIC of the glycopeptide antibacterial agent determined from this experiment was used in FIC calculations. […] RPMI-1640 without sodium bicarbonate media (GIBCO-BRL, Carlsbad, Calif.), an enriched media formulated for mammalian cells, was used according to the NCCLS guidelines for yeast and filamentous fungi susceptibility testing. The medium was buffered with 0.165 M 3-[N-Morpholino]propanesulfonic acid (MOPS) supplemented with 20 g/L glucose and pH adjusted to 7.0 with hydrogen chloride. Sabouraud Dextrose Agar ([…] plates, and Potato Dextrose Agar (PDA) plates were purchased from Hardy Diagnostic (Santa Maria, Calif.). Yeast cultures were started from -80° C. frozen stock streaked on […] incubated at 35° C. under aerobic conditions for 24 h. The […] in the refrigerator for up to 2 weeks and used regularly as a starting culture. About 24 to 48 h before each assay was run, yeasts were streaked on SDA plates for isolated colonies. To prepare the inoculum, from one to four colonies were resuspended in 5 mL of saline, and vortexed for 15 sec. […] For most yeast and mold cultures, the optical density (OD) of the suspension was adjusted to 0.11 in saline to provide 0.4×10^6 CFU/mL. However, for Fusarium moniliforme and Pseudallescheria boydii the OD of the suspension was adjusted to OD=0.17 to provide 0.4×10^6 CFU/mL. […]
# [2] = test system: C. krusei ATCC 32672; assay type: cell-based, Candida krusei; details: combination with Compound 1; C. krusei ATCC 32672
# Description: as §1
# [3] = test system: C. glabrata ATCC 200918; assay type: cell-based, Candida glabrata; details: combination with Compound 1
# Description: The following assay was used to determine the minimum inhibitory concentration (MIC) and fractional inhibitory concentration index (FICI) for combinations of an antifungal agent and a glycopeptide antibacterial agent. This assay and methods for calculating FICI are well known in the art. See, for example, Eliopoulos, E. G. and R. Moellering, Jr. “Antimicrobial Combinations” in Antibiotics in Laboratory Medicine, edited by V. Lorian, 4th Ed., Williams & Wilkins, Baltimore, MD, pp. 330-396 (1996); […] et al., Antimicrobial Agents and Chemotherapy 47(4):1416-1418 (2003); or […] et al., Antimicrobial Agents and Chemotherapy 46(10):3323-3326 (2002). Procedures, protocols, supplies and equipment used in this assay follow the recommendations approved and published by the National Committee for Clinical Laboratory Standards (NCCLS), Wayne, Pa. as described in NCCLS 2003, “Reference Method for Broth Dilution Antimicrobial Susceptibility Tests for Bacteria that Grow Aerobically; Approved Standard” (NCCLS document M7-A6); NCCLS 2002, “Reference Method for Broth Dilution Antifungal Susceptibility Tests of Filamentous Fungi that Grow Aerobically; Approved Standard” (NCCLS document M38-A); and NCCLS 2002 “Reference Method for Broth Dilution Antifungal Susceptibility Tests of Yeast; Approved Standards-2nd Edition” (NCCLS document M27-A2). Using a checkerboard method, a 2-fold dilution 100× final concentration master plate was prepared using a 96-well U-shape microtiter plate and an appropriate solvent. In the “checkerboard” method, a microtiter plate is divided into “columns” in which each well in the column contains the same amount of an antifungal agent (Compound A) being diluted along the x-axis, and “rows” in which each well in the row contains the same amount of a glycopeptide antibacterial agent (Compound B) being diluted on the y-axis. Also included is a row (or column) for Compound A or B alone. The dilutions used in the checkerboard are exponential (by powers of two). The result is that each well in the microtiter plate contains a unique concentration of the two compounds being tested. […] After mixing, 100 μL of 2× drug combinations were distributed into 96-well microtiter plates. […] Compound A was not added to Column 12, so Column 12 contained only Compound B. Compound B was diluted from row A starting at 6,400 μg/mL down to row G (100 μg/mL). Wells in Row A contained a final concentration of 64 μg/mL of Compound B; Row B contained a final concentration of 32 μg/mL of Compound B; Row C contained a final concentration of 16 μg/mL of Compound B; etc. Compound B was not added to Row H, so Row H only contained Compound A. […] The MIC of the glycopeptide antibacterial agent determined from this experiment was used in FIC calculations. […]
SMILES,FICI [1],FICI [2],FICI [3]
C[C@@H]1[C@H](O)[C@@H](C)/C=C/C=C/C=C/C=C/C=C/C=C/C=C/[C@H](O[C@@H]2O[C@H](C)[C@@H](O)[C@H](N)[C@@H]2O)C[C@@H]2O[C@](O)(C[C@@H](O)C[C@@H](O)[C@H](O)CC[C@@H](O)C[C@@H](O)CC(=O)O[C@H]1C)C[C@H](O)[C@H]2C(=O)O [Amphotericin B],0.28,0.31,0.19
C[C@@H]1[C@H](O)[C@@H](C)/C=C/C=C/CC/C=C/C=C/C=C/C=C/C(O[C@H]2O[C@H](C)[C@@H](O)[C@H](N)[C@@H]2O)CC2O[C@](O)(CC(O)C(O)CCC(O)CC(O)CC(O)CC(=O)O[C@H]1C)CC(O)C2C(=O)O (stereo partly drawn) [Nystatin],0.31,0.50,0.31
